From the supplement of paper PMC10307832 come the findings set out here.

Test in all cases: relative viability (nuclei count vs DMSO), 5 days (fraction); higher = more cells survive
Compound in assay [1]: O=C(NCCCNc1nc(Nc2cccc(NC(=O)N3CCCC3)c2)ncc1I)c1cccs1 [BX 795] + CC(=O)Nc1cccc(-n2c(=O)n(C3CC3)c(=O)c3c(Nc4ccc(I)cc4F)n(C)c(=O)c(C)c32)c1 [Trametinib] (partner 0.02 µM)
Put shortly: (§1)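 The day after seeding in 1536-well plates, lung cancer cell lines were treated by pin tool with a single drug, or with a fixed anchor-drug dose together with five library-drug doses (not always all listed) in √10 steps. After 5 days, a combined fix-and-stain solution (final 0.05% Triton X-100, 1% formaldehyde, 1 ug/ml Hoechst) was added. Nuclei counted on 4× images gave relative viability as treated counts over vehicle counts, reported as the median of duplicate plates.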

Compound in assay [2]: O=C(NCCCNc1nc(Nc2cccc(NC(=O)N3CCCC3)c2)ncc1I)c1cccs1 [BX 795] + CCNC(=O)c1noc(-c2cc(C(C)C)c(O)cc2O)c1-c1ccc(CN2CCOCC2)cc1 [Luminespib] (partner 0.01 µM)
In a few lines:
as §1

Compound in assay [3]: O=C(NCCCNc1nc(Nc2cccc(NC(=O)N3CCCC3)c2)ncc1I)c1cccs1 [BX 795] + COc1cccc2cc(-c3nc([C@H]4CC[C@H](C(=O)O)CC4)n4ncnc(N)c34)[nH]c12 [OSI-027] (partner 0.5 µM)
In a few lines: as §1

Compound in assay [4]: O=C(NCCCNc1nc(Nc2cccc(NC(=O)N3CCCC3)c2)ncc1I)c1cccs1 [BX 795] + Cc1nc(Nc2ncc(C(=O)Nc3c(C)cccc3Cl)s2)cc(N2CCN(CCO)CC2)n1 [Dasatinib] (partner 0.075 µM)
Put shortly:
as §1

Compound in assay [5]: O=C(NCCCNc1nc(Nc2cccc(NC(=O)N3CCCC3)c2)ncc1I)c1cccs1 [BX 795] + N=C(N)NC(=N)NCCc1ccccc1 [Phenformin] (partner 250 µM)
Put shortly:
as §1

Take PC-14: the relative viability in assay [1] (first compound 0.04 µM) worked out at 0.754; in assay [1] (first compound 0.1265 µM), 0.751; in assay [1] (first compound 0.4 µM), 0.815; in assay [1] (first compound 1.265 µM), 0.325; in assay [2] (first compound 0.04 µM), 0.138; in assay [2] (first compound 0.1265 µM), 0.113. In addition, the relative viability amounted to 0.138 in assay [2] (first compound 0.4 µM); 0.117 in assay [2] (first compound 1.265 µM); 0.738 in assay [3] (first compound 0.04 µM); 0.968 in assay [3] (first compound 0.1265 µM); 0.572 in assay [3] (first compound 0.4 µM); 0.475 in assay [3] (first compound 1.265 µM). Besides, the relative viability stood at 0.278 in assay [4] (first compound 0.04 µM); 0.249 in assay [4] (first compound 0.1265 µM); 0.228 in assay [4] (first compound 0.4 µM); 0.177 in assay [4] (first compound 1.265 µM); 0.533 in assay [5] (first compound 0.04 µM); 0.488 in assay [5] (first compound 0.1265 µM). Besides, the relative viability turned out to be 0.633 in assay [5] (first compound 0.4 µM) and 0.289 in assay [5] (first compound 1.265 µM).
As to RERF-LC-KJ, the relative viability in assay [1] (first compound 0.1265 µM) was 0.962; in assay [1] (first compound 0.4 µM), 0.878; in assay [1] (first compound 1.265 µM) it was 0.788; in assay [2] (first compound 0.04 µM), 1.41; in assay [2] (first compound 0.1265 µM), 1.27; in assay [2] (first compound 0.4 µM), 1.29. Also, the relative viability in assay [2] (first compound 1.265 µM) is 0.753; in assay [3] (first compound 0.04 µM) it was 0.62; in assay [3] (first compound 0.1265 µM), 0.636; in assay [3] (first compound 0.4 µM) it was 0.591; in assay [3] (first compound 1.265 µM), 0.416; in assay [4] (first compound 0.04 µM) it was 0.873. Also, the relative viability in assay [4] (first compound 0.1265 µM) worked out at 0.899; in assay [4] (first compound 0.4 µM), 0.707; in assay [4] (first compound 1.265 µM), 0.648; in assay [5] (first compound 0.04 µM) it was 0.473; in assay [5] (first compound 0.1265 µM), 0.424; in assay [5] (first compound 0.4 µM), 0.452. In addition, the relative viability in assay [5] (first compound 1.265 µM) stood at 0.282.
For the cell line SK-LU-1, the relative viability in assay [1] (first compound 0.04 µM) is 0.473; in assay [1] (first compound 0.1265 µM), 0.674; in assay [1] (first compound 0.4 µM) it was 0.396; in assay [1] (first compound 1.265 µM) it was 0.469; in assay [2] (first compound 0.04 µM), 0.224; in assay [2] (first compound 0.1265 µM), 0.217. Besides, the relative viability came out at 0.173 in assay [2] (first compound 1.265 µM); 0.327 in assay [3] (first compound 0.04 µM); 0.427 in assay [3] (first compound 0.1265 µM); 0.245 in assay [3] (first compound 1.265 µM); 0.142 in assay [4] (first compound 0.04 µM); 0.181 in assay [4] (first compound 0.1265 µM). Also, the relative viability is 0.135 in assay [4] (first compound 1.265 µM), 0.495 in assay [5] (first compound 0.04 µM), 0.608 in assay [5] (first compound 0.1265 µM) and 0.316 in assay [5] (first compound 1.265 µM).
Regarding SK-MES-1, the relative viability is 0.574 in assay [1] (first compound 0.04 µM); 0.46 in assay [1] (first compound 0.1265 µM); 0.519 in assay [1] (first compound 0.4 µM); 0.396 in assay [1] (first compound 1.265 µM); 0.857 in assay [2] (first compound 0.04 µM); 0.757 in assay [2] (first compound 0.1265 µM). In addition, the relative viability in assay [2] (first compound 0.4 µM) is 0.78; in assay [2] (first compound 1.265 µM) it was 0.5; in assay [3] (first compound 0.04 µM), 0.471; in assay [3] (first compound 0.1265 µM), 0.548; in assay [3] (first compound 0.4 µM) it was 0.224; in assay [3] (first compound 1.265 µM), 0.299. Besides, the relative viability in assay [4] (first compound 0.04 µM) worked out at 0.416; in assay [4] (first compound 0.1265 µM), 0.453; in assay [4] (first compound 0.4 µM), 0.164; in assay [4] (first compound 1.265 µM), 0.223; in assay [5] (first compound 0.04 µM), 0.691; in assay [5] (first compound 0.1265 µM) it was 0.628. Also, the relative viability in assay [5] (first compound 0.4 µM) was 0.592; in assay [5] (first compound 1.265 µM), 0.419.
As to SW 900, the relative viability in assay [1] (first compound 0.04 µM) worked out at 0.819; in assay [1] (first compound 0.4 µM), 0.99; in assay [1] (first compound 1.265 µM) it was 0.706; in assay [2] (first compound 0.04 µM), 0.17; in assay [2] (first compound 0.1265 µM), 0.157; in assay [2] (first compound 0.4 µM), 0.19. For the same cell line, the relative viability in assay [2] (first compound 1.265 µM) is 0.169; in assay [3] (first compound 0.04 µM), 0.679; in assay [3] (first compound 0.1265 µM), 0.521; in assay [3] (first compound 0.4 µM) it was 0.487; in assay [3] (first compound 1.265 µM) it was 0.423; in assay [4] (first compound 0.04 µM), 0.737. Besides, the relative viability was 0.541 in assay [4] (first compound 0.1265 µM); 0.414 in assay [4] (first compound 0.4 µM); 0.259 in assay [4] (first compound 1.265 µM); 0.478 in assay [5] (first compound 0.04 µM); 0.627 in assay [5] (first compound 0.1265 µM); 0.613 in assay [5] (first compound 0.4 µM). Further, the relative viability in assay [5] (first compound 1.265 µM) was 0.693.
SW 1573: the relative viability came out at 0.725 in assay [1] (first compound 0.04 µM); 0.642 in assay [1] (first compound 0.1265 µM); 0.753 in assay [1] (first compound 0.4 µM); 0.232 in assay [1] (first compound 1.265 µM); 0.214 in assay [2] (first compound 0.04 µM); 0.488 in assay [2] (first compound 0.1265 µM). Moreover, the relative viability in assay [2] (first compound 0.4 µM) is 0.514; in assay [2] (first compound 1.265 µM), 0.172; in assay [3] (first compound 0.04 µM) it was 0.684; in assay [3] (first compound 0.1265 µM), 0.686; in assay [3] (first compound 0.4 µM) it was 0.614; in assay [3] (first compound 1.265 µM) it was 0.322. Also, the relative viability in assay [4] (first compound 0.04 µM) was 0.512; in assay [4] (first compound 0.1265 µM), 0.456; in assay [4] (first compound 0.4 µM) it was 0.452; in assay [4] (first compound 1.265 µM) it was 0.161; in assay [5] (first compound 0.04 µM), 0.396; in assay [5] (first compound 0.1265 µM), 0.351. Further, the results for the relative viability in assay [5] (first compound 0.4 µM) and in assay [5] (first compound 1.265 µM) were 0.34 and 0.18, respectively.
On to UMC-11, for which the relative viability amounted to 0.685 in assay [1] (first compound 0.04 µM); 0.665 in assay [1] (first compound 0.1265 µM); 0.547 in assay [1] (first compound 0.4 µM); 0.531 in assay [1] (first compound 1.265 µM); 0.751 in assay [2] (first compound 0.04 µM); 1.06 in assay [2] (first compound 0.1265 µM). The relative viability was determined as 1.07 in assay [2] (first compound 0.4 µM); 0.271 in assay [2] (first compound 1.265 µM); 0.469 in assay [3] (first compound 0.04 µM); 0.43 in assay [3] (first compound 0.1265 µM); 0.371 in assay [3] (first compound 0.4 µM); 0.27 in assay [3] (first compound 1.265 µM). For the same cell line, the relative viability in assay [4] (first compound 0.04 µM) was found to be 0.412; in assay [4] (first compound 0.1265 µM), 0.407; in assay [4] (first compound 0.4 µM), 0.291; in assay [4] (first compound 1.265 µM) it was 0.169; in assay [5] (first compound 0.04 µM), 0.291; in assay [5] (first compound 0.1265 µM), 0.322. Moreover, the values for the relative viability in assay [5] (first compound 0.4 µM) and in assay [5] (first compound 1.265 µM) were 0.253 and 0.19, respectively.
